These results are taken from patent publication US9856279B2 (AGIOS PHARMACEUTICALS, INC, priority 2011, dated 2018).

The subject of one assay is U87MG cells. As to the kind of experiment: Cellular assay for IDH1m inhibitors: inhibition of 2-HG production (LC-MS, 48 hours) in U87MG cells. The format is cell-based. To be noted: Homo sapiens, U-87 MG, inhibition of 2-HG production, U87R132H cells; read-out: U87R132H IC50. The essentials: (§1)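 Cells were seeded at 5000/well in DMEM with 10% FBS, incubated overnight, then treated with compound (0.2% DMSO final) for 48 h at 37° C. Medium 2-HG was quantified by LC-MS. IC50 is the concentration reducing 2-HG by 50% versus DMSO control, and CellTiter-Glo viability was read at 72 h.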

A further assay has as its target IDH1 R132H (Homo sapiens, UniProt O75874, R132H). As to the kind of experiment: Assay for IDH1 R132H inhibitors (NADPH/aKG, resazurin detection). The format is biochemical. To be noted: enzyme assay of Example 12; read-out: IDH1R132H IC50. The essentials: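 Read-out is resorufin fluorescence (Ex544/Em590) 5 min after adding a 30 μM resazurin detection mix. Before that, mutant enzyme (0.2 μg/ml in its mix) ran 50 min at room temperature with compound, 8 uM NADPH and 2 mM aKG (mix levels) in Tris pH 7.5 with NaCl, MgCl2, BSA.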
(In general: Resazurin is reduced to fluorescent resorufin, in cell work by metabolically active cells.)

The subject of another assay is HT1080 cells. As to the kind of experiment: Cellular assay for IDH1m inhibitors: inhibition of 2-HG production (LC-MS, 48 hours) in HT1080 cells. The format is cell-based. Particulars: Homo sapiens, HT-1080; inhibition of 2-HG production, HT1080 cells; read-out: HT1080 IC50. The essentials: as §1

IDH1 R132H, sequence (O75874 whole entry R132H): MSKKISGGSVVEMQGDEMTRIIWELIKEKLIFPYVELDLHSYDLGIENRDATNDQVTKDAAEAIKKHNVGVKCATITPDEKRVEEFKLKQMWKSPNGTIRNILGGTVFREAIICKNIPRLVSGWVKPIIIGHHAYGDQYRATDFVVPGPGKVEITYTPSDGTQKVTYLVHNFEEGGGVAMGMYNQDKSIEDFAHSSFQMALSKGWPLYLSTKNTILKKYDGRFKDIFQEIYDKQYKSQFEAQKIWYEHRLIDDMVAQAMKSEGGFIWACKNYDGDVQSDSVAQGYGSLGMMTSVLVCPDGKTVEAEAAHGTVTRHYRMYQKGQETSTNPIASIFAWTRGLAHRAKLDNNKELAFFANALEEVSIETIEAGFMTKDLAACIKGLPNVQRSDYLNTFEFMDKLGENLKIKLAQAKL

As to `C=Cc1cnc2c(-c3cc(C#N)c(N4CCN(C(=O)CCO)[C@H](C5CC5)C4)nc3C3CC3)cccc2n1` [Compound 657, (R)-6-cyclopropyl-2-(3-cyclopropyl-4-(3-hydroxypropanoyl)piperazin-1-yl)-5-(2-vinylquinoxalin-5-yl)nicotinonitrile], the half-maximal inhibitory concentration (IC50) with U87MG cells, at IDH1 R132H and in the assay with HT1080 cells was under 500 nM throughout.

For `COCCC(=O)N1CCN(c2nc(C3CC3)c(-c3c(C)noc3C)cc2C#N)C[C@H]1C` [Compound 345, (R)-6-cyclopropyl-5-(3,5-dimethyl-isoxazol-4-yl)-2-[4-(3-methoxy-propionyl)-3-methyl-piperazin-1-yl]-nicotinonitrile], the IC50 was 500 to 1000 nM in the assay with U87MG cells, under 500 nM on IDH1 R132H and 1000 to 10000 nM with HT1080 cells.

Turning to `C=Cc1cc(-c2cc(C#N)c(N3CCN(C(=O)CCO)[C@@H](C4CC4)C3)nc2C2CC2)ccn1` [Compound 587, (S)-2-cyclopropyl-6-(3-cyclopropyl-4-(3-hydroxypropanoyl)piperazin-1-yl)-2′-vinyl-[3,4′-bipyridine]-5-carbonitrile], the half-inhibitory concentration (IC50) in the assay on U87MG cells, on IDH1 R132H and with HT1080 cells was under 500 nM each time.

Consider `N#Cc1cc(Nc2ccnc(Cl)c2)c(C2CC2)nc1N1CCN(C(=O)C[C@H]2CCO2)[C@H](C2CC2)C1` [Compound 748, 5-(2-chloropyridin-4-ylamino)-6-cyclopropyl-2-((R)-3-cyclopropyl-4-(2-((R)-oxetan-2-yl)acetyl)piperazin-1-yl)nicotinonitrile], for which the IC50 with U87MG cells, on IDH1 R132H and with HT1080 cells was under 500 nM each time.

In the case of `C=Cc1cc(-c2c(C3CC3)nc(N3CCN(C(=O)CCOC)[C@H](C)C3)c(C#N)c2C)ccn1` [Compound 628, (R)-2-cyclopropyl-6-(4-(3-methoxypropanoyl)-3-methylpiperazin-1-yl)-4-methyl-2′-vinyl-[3,4′-bipyridine]-5-carbonitrile], the half-inhibitory concentration (IC50) with U87MG cells, at IDH1 R132H and with HT1080 cells was under 500 nM each time.

Turning to `C=Cc1cc(-c2cc(C#N)c(N3CCN(C(=O)CCO)[C@H](C(C)C)C3)nc2C2CC2)c2cccnc2n1` [Compound 629, (R)-6-cyclopropyl-2-(4-(3-hydroxypropanoyl)-3-isopropylpiperazin-1-yl)-5-(2-vinyl-1,8-naphthyridin-4-yl)nicotinonitrile], the half-maximal inhibitory concentration (IC50) with U87MG cells, at IDH1 R132H and in the assay on HT1080 cells was under 500 nM throughout.

For the compound `C=Cc1cnnc(-c2c(C3CC3)nc(N3CCN(C(=O)OC(C)(C)C)[C@H](C4CC4)C3)c(C#N)c2C)c1` [Compound 771, (R)-tert-butyl 4-(3-cyano-6-cyclopropyl-4-methyl-5-(5-vinylpyridazin-3-yl)pyridin-2-yl)-2-cyclopropylpiperazine-1-carboxylate], the half-inhibitory concentration (IC50) with U87MG cells, on IDH1 R132H and in the assay with HT1080 cells was under 500 nM each time.

As for `COCCC(=O)N1CCN(c2nc(C3CC3)c(OC(C)c3ccncc3)cc2C#N)C[C@H]1C` (stereo partly drawn) [Compound 388, 6-cyclopropyl-2-((R)-4-(3-methoxypropanoyl)-3-methylpiperazin-1-yl)-5-(1-(pyridin-4-yl)ethoxy)nicotinonitrile], the 50% inhibitory concentration (IC50) with U87MG cells was 500 to 1000 nM; on IDH1 R132H, under 500 nM; with HT1080 cells, 1000 to 10000 nM.

For `COCCC(=O)N1CCN(c2nc(C3CC3)c(-c3cnc4[nH]ccc4c3)cc2C#N)C[C@H]1C` [Compound 374, (R)-6-cyclopropyl-2-[4-(3-methoxy-propionyl)-3-methyl-piperazin-1-yl]-5-(1H-pyrrolo[2,3-b]pyridin-5-yl)-nicotinonitrile], the IC50 with U87MG cells is 500 to 1000 nM; on IDH1 R132H it was under 500 nM; in the assay with HT1080 cells, 1000 to 10000 nM.

For `C=CC(=O)N(c1ccncc1)c1cc(C#N)c(N2CCN(C(=O)CCOC)[C@H](C)C2)nc1C1CC1` [Compound 702, (R)—N-(5-cyano-2-cyclopropyl-6-(4-(3-methoxypropanoyl)-3-methylpiperazin-1-yl)pyridin-3-yl)-N-(pyridin-4-yl) acryl amide], the IC50 is 1000 to 10000 nM in the assay with U87MG cells, under 500 nM on IDH1 R132H and 1000 to 10000 nM with HT1080 cells.

Regarding `C=Cc1cc(-c2cc(C#N)c(N3CCN(C(=O)CC(C)O)[C@H](C4CC4)C3)nc2C2CC2)ccn1` (stereo partly drawn) [Compound 568, 2-cyclopropyl-6-((3R)-3-cyclopropyl-4-(3-hydroxybutanoyl)piperazin-1-yl)-2′-vinyl-3,4′-bipyridine-5-carbonitrile], the half-maximal inhibitory concentration (IC50) in the assay on U87MG cells, at IDH1 R132H and in the assay with HT1080 cells was under 500 nM throughout.

On to `C=Cc1cc(Nc2cc(C#N)c(N3CCN(C(=O)CCO)[C@H](C)C3)nc2C2CC2)ccn1` [Compound 581, (R)-6-cyclopropyl-2-(4-(3-hydroxypropanoyl)-3-methylpiperazin-1-yl)-5-((2-vinylpyridin-4-yl)amino)nicotinonitrile], for which the half-inhibitory concentration (IC50) in the assay on U87MG cells, at IDH1 R132H and in the assay with HT1080 cells was under 500 nM in each case.

`C=Cc1cc(-c2c(C3CC3)nc(N3CCN(C(=O)CCOC)[C@H](C4CC4)C3)c(C#N)c2C)cnn1` [Compound 749, (R)-6-cyclopropyl-2-(3-cyclopropyl-4-(3-methoxypropanoyl)piperazin-1-yl)-4-methyl-5-(6-vinylpyridazin-4-yl)nicotinonitrile]: the half-inhibitory concentration (IC50) with U87MG cells, at IDH1 R132H and with HT1080 cells was under 500 nM throughout.

With `C=Cc1cc(Nc2cc(C#N)c(N3CCN(C(=O)C[C@@H]4CCO4)[C@H](C4CC4)C3)nc2C2CC2)ccn1` [Compound 774, 6-cyclopropyl-2-((R)-3-cyclopropyl-4-(2-((S)-oxetan-2-yl)acetyl)piperazin-1-yl)-5-((2-vinylpyridin-4-yl)amino)nicotinonitrile], the IC50 with U87MG cells, on IDH1 R132H and in the assay with HT1080 cells was under 500 nM each time.

Take `COCCC(=O)N1CCN(c2nc(C3CC3)c(-c3cccc(-c4cn[nH]c4)c3)cc2C#N)C[C@H]1C` [Compound 406, (R)-6-cyclopropyl-2-[4-(3-methoxy-propionyl)-3-methyl-piperazin-1-yl]-5-[3-(1H-pyrazol-4-yl)-phenyl]-nicotinonitrile]: the half-maximal inhibitory concentration (IC50) in the assay with U87MG cells is 1000 to 10000 nM; at IDH1 R132H, under 500 nM; with HT1080 cells, 1000 to 10000 nM.

For `C=Cc1cc(-c2cc(C#N)c(N3CCN(C(=O)CCOC)[C@H](C(C)C)C3)nc2C2CC2)ccn1` [Compound 631, (R)-2-cyclopropyl-6-(3-isopropyl-4-(3-methoxypropanoyl)piperazin-1-yl)-2′-vinyl-3,4′-bipyridine-5-carbonitrile], the 50% inhibitory concentration (IC50) in the assay with U87MG cells, on IDH1 R132H and in the assay on HT1080 cells was under 500 nM throughout.

Regarding `COCCC(=O)N1CCN(c2nc(C3CC3)c(-c3ccc(N)cc3)c(C)c2C#N)C[C@H]1C` [Compound 411, (R)-5-(4-aminophenyl)-6-cyclopropyl-2-(4-(3-methoxypropanoyl)-3-methylpiperazin-1-yl)-4-methylnicotinonitrile], the IC50 was 500 to 1000 nM in the assay with U87MG cells, under 500 nM at IDH1 R132H and 500 to 1000 nM in the assay with HT1080 cells.

Take `COCCC(=O)N1CCN(c2nc(C3CC3)c(-c3ccc(OC)c(F)c3)c(C)c2C#N)C[C@H]1C` [Compound 323, (R)-6-cyclopropyl-5-(3-fluoro-4-methoxy-phenyl)-2-[4-(3-methoxy-propionyl)-3-methyl-piperazin-1-yl]-4-methyl-nicotinonitrile]: the concentration for half-maximal inhibition (IC50) in the assay on U87MG cells is 500 to 1000 nM; on IDH1 R132H, under 500 nM; with HT1080 cells it was 500 to 1000 nM.

Regarding `C=Cc1cc(-c2cc(C#N)c(N3CCN(C(=O)CCO)[C@H](C4CC4)C3)nc2C2CC2)c2cc[nH]c2n1` [Compound 740, (R)-6-cyclopropyl-2-(3-cyclopropyl-4-(3-hydroxypropanoyl)piperazin-1-yl)-5-(6-vinyl-1H-pyrrolo[2,3-b]pyridin-4-yl)nicotinonitrile], the IC50 with U87MG cells, at IDH1 R132H and with HT1080 cells was under 500 nM each time.

On to `C=Cc1cc(-c2c(C3CC3)nc(N3CCN(C(=O)CC4CC4)[C@H](C4CC4)C3)c(C#N)c2C)ccn1` [Compound 787, (R)-2-cyclopropyl-6-(3-cyclopropyl-4-(2-cyclopropylacetyl)piperazin-1-yl)-4-methyl-2′-vinyl-3,4′-bipyridine-5-carbonitrile], for which the IC50 with U87MG cells, on IDH1 R132H and in the assay on HT1080 cells was under 500 nM throughout.

In the case of `C=Cc1cc(-c2cc(C#N)c(N3CCN(C(=O)CCOC)[C@H](C)C3)nc2C2CC2)cnn1` [Compound 615, (R)-6-cyclopropyl-2-(4-(3-methoxypropanoyl)-3-methylpiperazin-1-yl)-5-(6-vinylpyridazin-4-yl)nicotinonitrile], the half-inhibitory concentration (IC50) with U87MG cells, at IDH1 R132H and in the assay with HT1080 cells was under 500 nM throughout.

In the case of `COCCC(=O)N1CCN(c2nc(C3CC3)c(-c3ccc4nccn4c3)cc2C#N)C[C@H]1C` [Compound 436, (R)-6-cyclopropyl-5-imidazo[1,2-a]pyridin-6-yl-2-[4-(3-methoxy-propionyl)-3-methyl-piperazin-1-yl]-nicotinonitrile], the IC50 was 500 to 1000 nM in the assay with U87MG cells, under 500 nM at IDH1 R132H and 500 to 1000 nM in the assay on HT1080 cells.

As usually defined, the IC50 is the midpoint of a concentration-inhibition curve.
